Experimental data as given in US20250340648A1, “COMBINATION THERAPY FOR TREATMENT OF CANCER COMPRISING ANTI-PD-L1 AND ANTI-CD73 ANTIBODIES” (MedImmune Limited, priority 2022, published 2025).
“Also recorded” adds a separate entry of the source.

Tests used:
[1] = system: CT26 (colorectal) tumor cells; test: CT26 syngeneic mouse tumor model; type: in vivo, BALB/c mice; details: CT26 tumors; result in words
Description: (§1) In vivo studies were performed using 8-10 week old BALB/cAnNCrl mice (Charles River UK) or C57BL/6. Mice were housed in an AstraZeneca vivarium with access to food and water ad libidum and were cared for daily by trained personnel. Mice were acclimatized to the vivarium conditions for a week and handled according to the Home Office Animals Scientific Procedures Act, 1986, UK. All animal work was carried out under a Home Office approved project licence (PPL P49077891) and […] (RTx studies) as well as according to the institutional guidelines. BALB/c mice were subcutaneously implanted with 0.5e6 CT26 (colorectal) tumor cells. […] Tumors were measured with callipers three times a week, starting from day-5. […]
(§2) All in vivo data were collated in the Excel spreadsheets and transferred to GraphPad Prism 9.00 (GraphPad Software Inc.) for graphical representation and statistical analysis. After outlier identification and Shapiro-Wilk test for normality distribution, statistical significance was determined by One-way ANOVA followed by Dunnett's multiple comparison for comparisons of more than two groups if data were normally distributed. […] Survival studies were analysed with a log rank (Mantel-Cox) test, comparing only two survival curves at a time. […]

[2] = system: MCA205 (fibrosarcoma) tumor cells; test: MCA205 syngeneic mouse tumor model; type: in vivo, C57BL/6 mice; details: MCA205 tumors; result in words
Description: as §1, §2

CT26 transcriptome = test: RNAseq of treated CT26 tumors; type: in vivo, Mus musculus
Description: Tumor tissue was flash-frozen in liquid nitrogen and stored at −80° C. at the time of collection in the animal unit and was sent to Novogene on dry ice. Tissue processing and RNA extraction was carried out by Novogene Co. by using the QIAGEN RNeasy Plus Universal kit (Qiagen, Cat. No. 73404), according to the manufacturer's protocol. Briefly, tissue samples were homogenized in QIAzol Lysis Reagent. The homogenate was then separated into aqueous and organic phases by centrifugation after addition of gDNA eliminator solution and chloroform. The upper, aqueous phase containing RNA was collected, and RNA purified using RNeasy spin columns. RNA quality check (QC) was performed by 1% Agarose gel electrophoresis, amount and purity were measured by Nanodrop, and RNA […] Number (RIN) was obtained by Bioanalyzer Agilent2100.
NEBNextR Ultra RNA library prep kit (Cat. No. E7530L) was used for library preparation for sequencing. Samples were sequenced using Illumina PE150 (50M reads/sample) bulk RNA-seq and downstream bioinformatic analysis was performed.
Reads were mapped to Mus musculus genome (mm10) genome using Star (Dobin A et al., Bioinformatics 2013; 29:15-21). Uniquely mapped reads were counted using htseq-count (Putri GH et al., Bioinformatics 2022; 38:2943-5). DESeq2 (Love M I et al., Genome Biol 2014; 15) was used to normalize counts with size factors and identify differentially expressed genes across conditions with a threshold of abs (log2FC)>1 and adjusted p value<0.05.
(§3) Gene set enrichment analysis was performed using R package ‘fGSEA’ (Korotkevich G et al., bioRxiv 2021; 060012) using hallmark gene sets from mouse MSigDB (Subramanian A. et al., Proc Natl Acad Sci USA 2005; 102:15545-50). Enrichment p-values were calculated as described in Korotkevich G et al., bioRxiv 2021; 060012 and p-values were adjusted using Benjamini-Hochberg method. Gene ontology Biological Process enrichments were identified using R package topGO (Bioconductor-topGO) with adj-pval<0.05. KEGG pathway enrichment analysis was conducted using R package clusterProfiler (Wu T. et al., The Innovation 2021; 2:100141). MCPCounter tool (Becht E. et al., Genome Biol 2016; 17:1-20) was used to estimate immune cell abundances for each sample and condition using immune gene signatures within MCPCounter.

[3] = system: adenosine pathway metabolites; test: Mass Spectrometry Imaging of CT26 tumors; type: in vivo, mouse
Description: Tumors were snap frozen in liquid nitrogen immediately after resection and the frozen tissues were embedded in a HPMC/PVP hydrogel as previously described (Dannhorn A. et al., Anal Chem 2020; 92:11080-8). Sectioning was performed on a CM3050 S cryostat (Leica Biosystems, Nussloch, Germany) at a section thickness of 10 um and the tissue sections were immediately thaw mounted and dried under a stream of nitrogen and sealed in vacuum pouches to preserve the metabolic integrity of the sections. Tissue sections for DESI-MSI and IMC were thaw-mounted onto Superfrost microscope slides (VWR, Cat. No. 630-2863), whilst sections prepared for MALDI-MSI were thaw mounted onto conductive indium tin oxide (ITO) coated slides (Bruker Daltonik, Cat. No. 8237001). Polyvinylpyrrolidone (PVP) and (Hydroxypropyl) methylcellulose (HPMC) (purchased from Merck (Cat. No.PVP360; H8384). Methanol (Cat. No. 15624680), iso-pentane (Cat. No. 15692830) and isopropyl alcohol (Cat. No. 10674732) were obtained from Fisher Scientific.
DESI-MSI analysis was performed on a Q-Exactive mass spectrometer (Thermo Scientific, Bremen, Germany) equipped with an automated 2D-DESI ion source (Prosolia Inc., Indianapolis, IN, USA) operated in negative ion mode, covering the applicable mass range up to m/z of 1000, with a nominal mass resolution of 70,000. […]

[4] = system: immune cell populations in the treated CT26 tumors; test: MCP-Counter estimate of immune cell abundance from RNAseq; design: species or system mouse; details: MCP counter on RNAseq
Description: as §3
Next we checked if the gene perturbation at this scale also led to changes in the enumeration of the cell populations. For this we estimated the abundance of immune cell populations in the treated CT26 tumors, using the MCP-Counter tool (Becht E, et al., Genome Biol 2016; 17:1-20).

[5] = CT26 tumors vs control, abs(log2FC)>1, adjusted p<0.05
[6] = CT26 tumors, component added to the other parts of aCD73+aPD-L1+5FU+OHP
[7] = component within aCD73+aPD-L1+5FU+OHP, not modulated in other iterations

Which results are given for “5-fluorouracil (5FU)+oxaliplatin (OHP) [5FU+OHP]”?
tumor growth inhibition / efficacy [1]: supressed tumor growth rates; also recorded: retarded tumor growth in a proportion of drug recipients; tumor growth inhibition / efficacy [2]: supressed tumor growth rates; also recorded: retarded tumor growth in a proportion of drug recipients; Down-regulated genes (CT26 transcriptome; [5]): 158 genes; Up-regulated genes (CT26 transcriptome; [5]): 277 genes; differentially expressed (DE) genes (CT26 transcriptome; [5]): 435 DE DE genes; Up-regulated genes (CT26 transcriptome; CT26 tumors vs control, abs(log2FC)>1, adjusted p<0.05, listed as FF): 277 Up- genes; genes downregulated when the named component is included in the combination (CT26 transcriptome; [6]): IL-10, IL-1b, CXCL2, S100A8; genes upregulated or notably influenced when the named component is included in the combination (CT26 transcriptome; [6]): Interferon-gamma, TRIM6, CCL17, Granzyme B, GDF15, perforin and Lag3; individual genes downregulated (CT26 transcriptome; CT26 tumors, gene names): CXCL2 expression was reduced; also recorded: CXCL2, IL-1b, CD103 and XCR1; individual genes upregulated (CT26 transcriptome; CT26 tumors, gene names): CCL3, 4, 8, 17, CXCL10, GDF15, CD8a, IFNγ, Perforin, Granzyme, Lag-3 and PD-1; also recorded: IFN-Y, CCL3, CCL8, Lag-3 and granzyme B; also recorded: elevated ARORA2 gene expression; DE genes due to addition of the named component (CT26 transcriptome; aCD73+aPD-L1+5FU+OHP vs the combination without the component, Abs(log2FC)>=1, Adj-pval<0.05): 546 DE genes; genes uniquely downregulated by the named component (CT26 transcriptome; [7]): 122 genes; genes uniquely upregulated by the named component (CT26 transcriptome; [7]): 360 genes; ATP abundance (MSI) ([3]; compared to control treated tumors): modest increase; AMP abundance (MSI) ([3]; compared to other treatment groups): modest increase; abundance of immune cell populations in tumor [4]: increased lymphocyte representation
